Test results reported in US12509424B2, “Compound and composition as PDGF receptor kinase inhibitor” (NIPPON SHINYAKU CO., LTD., priority 2019, dated 2025).
Where two headings read alike, the source gives them in different places.

Legend:
[1] = tested on: pulmonary arterial smooth muscle cells; experiment: Suppression of proliferation of pulmonary arterial smooth muscle cells (PDGF-BB stimulation, BrdU); assay type: cell-based; details: PASMC, read-out: Human normal PASMC proliferation suppression (PDGF stimulation_IC50)
Procedure: (§1) 1. Preparation of Test Substance
Furthermore, it was diluted by 50 times with distilled water.
2. Measurement of Suppression Action Against Proliferation of Pulmonary Arterial Smooth Muscle Cells
The day after healthy human derived pulmonary arterial smooth muscle cells were seeded onto a 96 well plate using a smooth muscle cell proliferation medium, the proliferation medium was replaced with a 0.1% FBS medium, and the cells were cultured for an additional day. A test substance solution was diluted by 10 times with a medium containing BrdU and human PDGF-BB (final concentration of 10 ng/mL, Sigma-Aldrich) and added to cells in equal amounts so as to reach a final concentration of 3 to 10,000 nM. Also, to the human PDGF-BB negative control, BrdU and 0.1% DMSO solution were added. After culturing for 1 day, the amount of BrdU taken up by the proliferating cells was measured using an anti-BrdU antibody.
(§2) 3. Analysis of Measurement Results

PDGFR-β = PDGFR-β (Homo sapiens (Human), UniProt P09619); experiment: PDGFR-β tyrosine kinase inhibitory action (HTRF KinEASE-TK); assay type: biochemical; details: PDGFR-β enzyme 1 ng/μL, 30° C. for 30 minutes; read-out: PDGF-β IC50
Procedure: as §1
This DMSO solution was diluted by 8 times with an assay buffer 1 (50 mM HEPES (pH 7.0), 0.02% NaN3, 0.01% Bovine Serum Albumin, 0.1 mM orthovanadate, 1 mM Dithiothreitol, 5 mM MgCl2, and 1 mM MnCl2) and further diluted by 5 times with an assay buffer 2 (50 mM HEPES (pH 7.0), 0.02% NaN3, 0.01% Bovine Serum Albumin, 0.1 mM orthovanadate, 1 mM Dithiothreitol, 5 mM MgCl2, 1 mM MnCl2, and 40 nM Supplemented Enzymatic Buffer (cisbio)).
2. Measurement of PDGFR-β Tyrosine Kinase Inhibitory Action
For the measurement, the HTRF KinEASE-TK kit from Cisbio Bioassays SAS was used. To a 384 well plate, the test substance solution was added at 4 μL each, then 2 μL of a PDGFR-β enzyme solution (final concentration of 1 ng/μL, Carna Biosciences, Inc.) and 4 μL of a substrate solution obtained by adding 0.6 μM ATP to TK substrate-3-biotin (cisbio) were added, and the solution was allowed to react at 30° C. for 30 minutes at a final concentration of the test substance being 0.01 to 10,000 nM.
Thereafter, 10 μL of a detection solution (cisbio) was added to each well and allowed to react at 30° C. for 1 hour. The fluorescence intensity was measured with a microplate reader (Spectra Max M5, Molecular device).
as §2

[2] = 24 h, healthy human derived pulmonary arterial smooth muscle cells, human PDGF-BB 10 ng/mL stimulation, BrdU uptake after 1 day, test substance final concentration 3 to 10,000 nM
[3] = human PDGF-BB 10 ng/mL, BrdU uptake, final concentration 3 to 10,000 nM

Sequence of PDGFR-β (P09619 33-1106): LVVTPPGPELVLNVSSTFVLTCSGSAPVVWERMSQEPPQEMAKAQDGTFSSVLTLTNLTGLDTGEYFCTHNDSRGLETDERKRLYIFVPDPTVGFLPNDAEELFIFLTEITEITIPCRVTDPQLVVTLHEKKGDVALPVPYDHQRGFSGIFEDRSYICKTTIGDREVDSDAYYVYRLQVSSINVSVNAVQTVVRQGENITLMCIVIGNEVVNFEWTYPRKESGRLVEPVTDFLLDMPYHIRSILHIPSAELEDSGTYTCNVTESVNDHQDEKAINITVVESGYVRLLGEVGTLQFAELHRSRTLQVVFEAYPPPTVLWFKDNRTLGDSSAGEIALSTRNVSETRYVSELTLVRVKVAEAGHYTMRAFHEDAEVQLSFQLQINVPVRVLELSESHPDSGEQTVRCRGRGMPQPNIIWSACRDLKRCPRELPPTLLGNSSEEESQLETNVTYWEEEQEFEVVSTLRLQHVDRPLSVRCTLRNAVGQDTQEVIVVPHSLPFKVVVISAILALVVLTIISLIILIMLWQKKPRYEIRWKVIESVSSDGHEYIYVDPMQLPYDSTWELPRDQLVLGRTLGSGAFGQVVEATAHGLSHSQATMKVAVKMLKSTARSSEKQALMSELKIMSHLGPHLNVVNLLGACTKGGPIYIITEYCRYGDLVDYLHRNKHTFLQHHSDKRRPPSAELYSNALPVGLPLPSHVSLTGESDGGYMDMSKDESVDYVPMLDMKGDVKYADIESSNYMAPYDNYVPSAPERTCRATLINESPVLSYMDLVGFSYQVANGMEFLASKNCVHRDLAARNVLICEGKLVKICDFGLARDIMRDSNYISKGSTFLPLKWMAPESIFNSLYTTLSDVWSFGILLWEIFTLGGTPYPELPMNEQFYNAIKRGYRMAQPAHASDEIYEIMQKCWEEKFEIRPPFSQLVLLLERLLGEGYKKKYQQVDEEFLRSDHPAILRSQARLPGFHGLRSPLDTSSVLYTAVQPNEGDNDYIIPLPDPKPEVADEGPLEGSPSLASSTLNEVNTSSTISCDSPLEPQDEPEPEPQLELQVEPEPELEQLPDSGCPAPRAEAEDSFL

Cc1ccc(C(=O)N[C@H]2CCCC[C@@H]2O)cc1NCc1ccc(NC(=O)C2CC2)nc1 [Example 120, 3-[({6-[(cyclopropanecarbonyl)amino]pyridin-3-yl}methyl)amino]-N-[(1S,2S)-2-hydroxycyclohexyl]-4-methylbenzamide]
IC50 [1, 2]: 34 nM | IC50 (PDGFR-β): 20 nM

Cc1ccc(C(=O)N[C@H]2CCCC[C@@H]2O)cc1NCc1cnc(N)cn1 [Example 131, 3-{[(5-aminopyrazin-2-yl)methyl]amino}-N-[(1S,2S)-2-hydroxycyclohexyl]-4-methylbenzamide]
IC50 [1, 2]: 340 nM | IC50 (PDGFR-β): 490 nM

CN1CCN(Cc2cncc(/C(F)=C/c3cc(C(=O)N[C@H]4CCCC[C@@H]4O)ccc3F)c2)CC1 [Example 186, 4-fluoro-3-[(Z)-2-fluoro-2-{5-[(4-methylpiperazin-1-yl)methyl]pyridin-3-yl}ethenyl]-N-[(1S,2S)-2-hydroxycyclohexyl]benzamide]
IC50 [1, 2]: 220 nM | IC50 (PDGFR-β): 150 nM

Cc1ccc(C(=O)N[C@H]2CCCC[C@@H]2O)cc1/C=C(\F)c1cnc(N)cn1 [Example 206, 3-[(Z)-2-(5-aminopyrazin-2-yl)-2-fluoroethenyl]-N-[(1S,2S)-2-hydroxycyclohexyl]-4-methylbenzamide]
IC50 [1, 3]: 92 nM | IC50 (PDGFR-β): 31 nM

Cc1ccc(C(=O)N[C@H]2CCCC[C@@H]2O)cc1NCc1cnc2cccnn12 [Example 110, N-[(1S,2S)-2-hydroxycyclohexyl]-3-{[(imidazo[1,2-b]pyridazin-3-yl)methyl]amino}-4-methylbenzamide]
IC50 [1, 2]: 240 nM | IC50 (PDGFR-β): 350 nM

O=C(N[C@H]1CCCC[C@@H]1O)c1ccc(F)c(/C=C(\F)c2cncc(-c3ccccn3)c2)c1 [Example 177, 3-[(Z)-2-([2,3′-bipyridin]-5′-yl)-2-fluoroethenyl]-4-fluoro-N-[(1S,2S)-2-hydroxycyclohexyl]benzamide]
IC50 [1, 2]: 11 nM | IC50 (PDGFR-β): 15 nM

O=C(N[C@H]1CCCC[C@@H]1O)c1cccc(CNc2cncc(-c3ncccn3)c2)c1 [Example 150, N-[(1S,2S)-2-hydroxycyclohexyl]-3-({[5-(pyrimidin-2-yl)pyridin-3-yl]amino}methyl)benzamide]
IC50 [1, 2]: 300 nM | IC50 (PDGFR-β): 360 nM

Cc1ccc(C(=O)N[C@H]2CCCC[C@@H]2O)cc1/C=C(\F)c1cnc2cccnn12 [Example 179, 3-[(Z)-2-fluoro-2-(imidazo[1,2-b]pyridazin-3-yl)ethenyl]-N-[(1S,2S)-2-hydroxycyclohexyl]-4-methylbenzamide]
IC50 [1, 2]: 20 nM | IC50 (PDGFR-β): 5.9 nM

Cc1ccc(C(=O)N[C@@H](CO)[C@@H](O)c2ccccc2)cc1N1CCc2nc(N)ncc2C1 [Example 83, 3-(2-amino-7,8-dihydropyrido[4,3-d]pyrimidin-6(5H)-yl)-N-[(1S,2S)-1,3-dihydroxy-1-phenylpropan-2-yl]-4-methylbenzamide]
IC50 [1, 2]: 48 nM | IC50 (PDGFR-β): 5 nM

O=C(N[C@H]1CCCC[C@@H]1O)c1ccc(Cl)c(COc2cncc(-c3ncccn3)c2)c1 [Example 170, 4-chloro-N-[(1S,2S)-2-hydroxycyclohexyl]-3-({[5-(pyrimidin-2-yl)pyridin-3-yl]oxy}methyl)benzamide]
IC50 [1, 2]: 130 nM | IC50 (PDGFR-β): 200 nM

Cc1ncc(C(=O)N[C@H]2CCCC[C@@H]2O)cc1/C=C(\F)c1cncc(OCC2CC2)c1 [Example 187, 5-{(Z)-2-[5-(cyclopropylmethoxy)pyridin-3-yl]-2-fluoroethenyl}-N-[(1S,2S)-2-hydroxycyclohexyl]-6-methylpyridine-3-carboxamide]
IC50 [1, 2]: 20 nM | IC50 (PDGFR-β): 14 nM

Cc1ncc(C(=O)N[C@H]2CCCC[C@@H]2O)cc1/C=C(\F)c1ccc(N)nc1 [Example 189, 5-[(Z)-2-(6-aminopyridin-3-yl)-2-fluoroethenyl]-N-[(1S,2S)-2-hydroxycyclohexyl]-6-methylpyridine-3-carboxamide]
IC50 [1, 2]: 90 nM | IC50 (PDGFR-β): 200 nM

Cc1ccc(C(=O)N[C@H]2CCCC[C@@H]2O)cc1NCc1ccc(NC2COC2)nc1 [Example 141, N-[(1S,2S)-2-hydroxycyclohexyl]-4-methyl-3-[({6-[(oxetan-3-yl)amino]pyridin-3-yl}methyl)amino]benzamide]
IC50 [1, 2]: 190 nM | IC50 (PDGFR-β): 69 nM

Cc1nc(N)ncc1/C(F)=C/c1cc(C(=O)N[C@H]2CCCC[C@@H]2O)ccc1F [Example 204, 3-[(Z)-2-(2-amino-4-methylpyrimidin-5-yl)-2-fluoroethenyl]-4-fluoro-N-[(1S,2S)-2-hydroxycyclohexyl]benzamide]
IC50 [1, 2]: 52 nM | IC50 (PDGFR-β): 21 nM

Cc1ncc(C(=O)N[C@H]2CCCC[C@@H]2O)cc1/C=C(\F)c1cncc(NC2COC2)c1 [Example 195, 5-[(Z)-2-fluoro-2-{5-[(oxetan-3-yl)amino]pyridin-3-yl}ethenyl]-N-[(1S,2S)-2-hydroxycyclohexyl]-6-methylpyridine-3-carboxamide]
IC50 [1, 2]: 26 nM | IC50 (PDGFR-β): 19 nM

CNc1ncc2c(Nc3cc(C(=O)N[C@H]4CCCC[C@@H]4O)ccc3C)cccc2n1 [Example 82, N-[(1S,2S)-2-hydroxycyclohexyl]-4-methyl-3-{[2-(methylamino)quinazolin-5-yl]amino}benzamide]
IC50 [1, 2]: 72 nM | IC50 (PDGFR-β): 27 nM

Cc1ccc(C(=O)N[C@H]2CCCC[C@@H]2O)cc1NCc1cncc(-n2nccn2)c1 [Example 145, N-[(1S,2S)-2-hydroxycyclohexyl]-4-methyl-3-({[5-(2H-1,2,3-triazol-2-yl)pyridin-3-yl]methyl}amino)benzamide]
IC50 [1, 2]: 47 nM | IC50 (PDGFR-β): 100 nM

Cc1ccc(C(=O)N[C@H]2CCCC[C@@H]2O)cc1NCc1ccc(NC2CCOCC2)nc1 [Example 125, N-[(1S,2S)-2-hydroxycyclohexyl]-4-methyl-3-[({6-[(oxan-4-yl)amino]pyridin-3-yl}methyl)amino]benzamide]
IC50 [1, 2]: 30 nM | IC50 (PDGFR-β): 130 nM

COC(=O)Nc1ccc(CNc2cc(C(=O)N[C@H]3CCCC[C@@H]3O)ccc2C)cn1 [Example 124, methyl {5-[(5-{[(1S,2S)-2-hydroxycyclohexyl]carbamoyl}-2-methylanilino)methyl]pyridin-2-yl}carbamate]
IC50 [1, 2]: 25 nM | IC50 (PDGFR-β): 22 nM

Cc1ccc(C(=O)N[C@H]2CCCC[C@@H]2O)cc1C#Cc1cncc(Br)n1 [Example 74, 3-[(6-bromopyrazin-2-yl)ethynyl]-N-[(1S,2S)-2-hydroxycyclohexyl]-4-methylbenzamide]
IC50 [1, 2]: 18 nM | IC50 (PDGFR-β): 180 nM

Cc1ccc(C(=O)N[C@H]2CCCC[C@@H]2O)cc1/C=C(\F)c1cncc(CN2CCN(C)CC2)c1 [Example 181, 3-[(Z)-2-fluoro-2-{5-[(4-methylpiperazin-1-yl)methyl]pyridin-3-yl}ethenyl]-N-[(1S,2S)-2-hydroxycyclohexyl]-4-methylbenzamide]
IC50 [1, 2]: 500 nM | IC50 (PDGFR-β): 100 nM

Cc1ncc(C(=O)N[C@H]2CCCC[C@@H]2O)cc1/C=C(\F)c1cncc(-c2ccccn2)c1 [Example 180, 5-[(Z)-2-([2,3′-bipyridin]-5′-yl)-2-fluoroethenyl]-N-[(1S,2S)-2-hydroxycyclohexyl]-6-methylpyridine-3-carboxamide]
IC50 [1, 2]: 32 nM | IC50 (PDGFR-β): 16 nM

Cc1ccc(C(=O)N[C@H]2CCCC[C@@H]2O)cc1NCc1cnc(-c2ccccc2)nc1 [Example 121, N-[(1S,2S)-2-hydroxycyclohexyl]-4-methyl-3-{[(2-phenylpyrimidin-5-yl)methyl]amino}benzamide]
IC50 [1, 2]: 300 nM | IC50 (PDGFR-β): 160 nM

O=C(N[C@H]1CCCC[C@@H]1O)c1ccc(F)c(/C=C(\F)c2cnc(NCC3CC3)nc2)c1 [Example 202, 3-[(Z)-2-{2-[(cyclopropylmethyl)amino]pyrimidin-5-yl}-2-fluoroethenyl]-4-fluoro-N-[(1S,2S)-2-hydroxycyclohexyl]benzamide]
IC50 [1, 2]: 33 nM | IC50 (PDGFR-β): 77 nM

O=C(N[C@H]1CCCC[C@@H]1O)c1ccc(F)c(/C=C(\F)c2cncc(F)c2)c1 [Example 207, 4-fluoro-3-[(Z)-2-fluoro-2-(5-fluoropyridin-3-yl)ethenyl]-N-[(1S,2S)-2-hydroxycyclohexyl]benzamide]
IC50 [1, 3]: 99 nM | IC50 (PDGFR-β): 100 nM

Cc1ccc(C(=O)N[C@H]2CCCC[C@@H]2O)cc1NCc1ccc(NC(=O)C2CCOC2)nc1 (stereo partly drawn) [Example 139, N-{5-[(5-{[(1S,2S)-2-hydroxycyclohexyl]carbamoyl}-2-methylanilino)methyl]pyridin-2-yl}oxolane-3-carboxamide]
IC50 [1, 2]: 100 nM | IC50 (PDGFR-β): 30 nM
